Measurements from US10493035B2, “Tablets comprising 2-hydroxy-6-((2-(1-isopropyl-1H-pyrazol-5-yl)pyridin-3-yl)methoxy)benzaldehyde” (Global Blood Therapeutics, Inc., priority 2016, dated 2019).

Columns and labels:
[1] = Physicochemical and biopharmaceutical properties of Compound 1 and its crystal forms
Procedure: Compound 1 is a BCS II compound, where its solubility is the primary biopharmaceutical factor limiting absorption. Compound 1 exists in one form as an ansolvate crystalline form characterized by at least two, three or four X-ray powder diffraction peaks (Cu Kα radiation) selected from 13.37°, 14.37°, 19.95° and 23.92° 2θ (each ±0.2° 2θ) (see, e.g., PCT application Publication No. WO 2015/120133 A1, incorporated herein by reference in its entirety and for all purposes). This form can hereinafter also be referred to as Form II. The physicochemical properties of Compound 1, including its Form II, are not as conducive (compared to other drug substances for formulation) to making a high dosage form of Compound 1. […] The bulk density of Form II of Compound 1 is considered low and its flowability considered poor. Upon milling, the flowability decreases. […] Form II of Compound 1 is also prone to sticking to steel surfaces, such as in processing equipment for tablet manufacture.
In addition, another ansolvate crystalline form of Compound 1, referred to as Form N, is known. Form N has an enantiotropic relationship with Form II, with a transition temperature approximately in the range 30-40° C. Thus, under temperatures (e.g. storage) below 40° C., e.g., at 25° C., Compound 1 is more thermodynamically stable as Form II and at temperatures above 40° C., e.g., at 50° C., Compound 1 is more thermodynamically stable as Form N. To design tablets containing Compound 1, the above physicochemical property limitations of Compound 1 and the high dose requirements need to be accommodated while ensuring that the tablets have dissolution properties that lead to a therapeutic effect.

[2] = Compression profile of neat Form II API (hydraulic press, 200 mg compacts); type: physicochemical; settings: for Tablet Hardness / Tablet Thickness: neat API 200 mg
Procedure: The compressibility of crystalline Form II of Compound 1 (“API”) was determined by compressing neat unformulated API at 200 mg scale compressed in a hydraulic press using 5/16th inch diameter, standard concave round tooling. The resulting tablets were measured for thickness using a digital caliper gauge, and for tensile strength using a tablet hardness tester. […] Lots 1a and 2 were directly from the API manufacturing process, but from different API suppliers. Lot 1b was prepared by taking Lot 1a and subjecting it to hammer milling to cause reduction of particle size.

[3] = compression force 2000 lbf, listed as 1a
[4] = compression force 3000 lbf, listed as 1a
[5] = compression force 4000 lbf, listed as 1a
[6] = compression force 2000 lbf, listed as 1b
[7] = compression force 3000 lbf, listed as 1b
[8] = compression force 4000 lbf, listed as 1b
[9] = compression force 2000 lbf, listed as 2
[10] = compression force 3000 lbf, listed as 2
[11] = compression force 4000 lbf, listed as 2

CC(C)n1nccc1-c1ncccc1COc1cccc(O)c1C=O [Compound 1, 2-hydroxy-6-((2-(1-isopropyl-1H-pyrazol-5-yl)pyridin-3-yl)methoxy)benzaldehyde]
BCS class [1]: BCS II

CC(C)n1nccc1-c1ncccc1COc1cccc(O)c1C=O [Form II of Compound 1, 2-hydroxy-6-((2-(1-isopropyl-1H-pyrazol-5-yl)pyridin-3-yl)methoxy)benzaldehyde]
Lipophilicity (in words) [1]: lipophilic | Water solubility (in words) [1]: poorly water soluble | Compressibility (in words) ([2]; neat API): relatively incompressible solid

CC(C)n1nccc1-c1ncccc1COc1cccc(O)c1C=O [Form N, 2-hydroxy-6-((2-(1-isopropyl-1H-pyrazol-5-yl)pyridin-3-yl)methoxy)benzaldehyde]
Transition temperature of the enantiotropic relationship with Form II [1]: 30-40 °C

CC(C)n1nccc1-c1ncccc1COc1cccc(O)c1C=O [Lot 1a, 2-hydroxy-6-((2-(1-isopropyl-1H-pyrazol-5-yl)pyridin-3-yl)methoxy)benzaldehyde]
Tablet Hardness [2, 3]: 1.8 kp | Tablet Thickness [2, 3]: 4.50 mm | Tablet Hardness [2, 4]: 1.5 kp | Tablet Thickness [2, 4]: 4.34 mm | Tablet Hardness [2, 5]: 1.0 kp | Tablet Thickness [2, 5]: 4.35 mm

CC(C)n1nccc1-c1ncccc1COc1cccc(O)c1C=O [Lot 1b, 2-hydroxy-6-((2-(1-isopropyl-1H-pyrazol-5-yl)pyridin-3-yl)methoxy)benzaldehyde]
Tablet Hardness [2, 6]: 2.4 kp | Tablet Thickness [2, 6]: 4.55 mm | Tablet Hardness [2, 7]: 1.2 kp | Tablet Thickness [2, 7]: 4.32 mm | Tablet Hardness [2, 8]: 1.5 kp | Tablet Thickness [2, 8]: 4.43 mm

CC(C)n1nccc1-c1ncccc1COc1cccc(O)c1C=O [Lot 2, 2-hydroxy-6-((2-(1-isopropyl-1H-pyrazol-5-yl)pyridin-3-yl)methoxy)benzaldehyde]
Tablet Hardness [2, 9]: 9.0 kp | Tablet Thickness [2, 9]: 4.50 mm | Tablet Hardness [2, 10]: 3.7 kp | Tablet Thickness [2, 10]: 4.27 mm | Tablet Hardness [2, 11]: 3.4 kp | Tablet Thickness [2, 11]: 4.31 mm
